Source: US20120070511A1, “MITOCHONDRIAL INHIBITORS AND USES THEREOF” (priority 2009, published 2012)

Key:
Format in all cases: cell-based
[1] = tested on: MM.1S cells
Experimental: (§1) A) Reversal of CCCP induced toxicity by either 10 μM BAPTA-AM or 50 μM of Z-VAD was investigated using trypan blue exclusion assays. The bars represent the average of triplicate samples +SD. B) ATP levels were assayed following 6 h of treatment with indicated concentrations of CCCP. The bars represent the average of triplicate samples +SD. C) Induction of UPR, activation of AMPK pathway and cleavage of caspase 3 was analyzed by western blots following 24 h treatment with indicated concentrations of CCCP in MM.1S and REH cell lines. β-Actin was used as a loading control. D) The quantification of phosphorylated AMPK and total AMPK bands in the previous panel was done using a Bio-Rad gel reader which employs Quality I software. The bars represent the fold increase in the ratio of p-AMPK/AMPK in treated versus untreated samples from three independent experiments +SD.
(§2) Western blot analysis: Western blots were performed. Membranes were probed with monoclonal rabbit anti-GRP94, anti GRP-78, anti-PDI, anti-CHOP/GADD153, anti-cleaved caspase 3 (Cell Signaling, Danvers, Mass., USA) and monoclonal mouse anti-β-actin (Sigma, St. Louis, Mo., USA).

[2] = tested on: REH cells; test: Western blot after 24 h CCCP (UPR, AMPK pathway, caspase 3)
Experimental: as §1, §2

[3] = tested on: multiple myeloma cell lines (MM.1S, 8226, KMS-11, U266)
Experimental: (§3) Cytotoxicity assay: Cells were incubated for 24 hr at 37° C. in 5% CO2 at which time drug treatments began and continued for 24 hr. At this time attached cells were trypsinized and combined with their respective culture media while suspension cells were directly transferred to a tube followed by centrifugation at 400 g for 5 min. The pellets were resuspended in 1 ml of Hanks solution and analyzed by Vi-Cell (Beckman Coulter, Fullerton, Calif.) cell viability analyzer.

[4] = tested on: non-myeloma cell lines (NALM6, 143B, MDA-MB-435, 1420); details: higher concentrations; all cell types
Experimental: as §3

[5] = tested on: MM cell lines (MM.1S, 8226, KMS-11)
Experimental: Cytotoxicity assay: Cells were incubated for 24 h at 37° C. in 5% CO2 at which time drug treatments began and continued for 24 h. At this time cells were transferred to a tube followed by centrifugation at 400 g for 5 min. The pellets were resuspended in 1 ml of Hanks solution and analyzed by Vi-Cell (Beckman Coulter, Fullerton, Calif., USA) cell viability analyzer.

[6] = tested on: MM.1S and REH cells; test: ATP levels after 6 h of CCCP treatment; details: 6 h CCCP; REH versus MM.1S
Experimental: as §1

Question: How did the “CCCP concentration at which caspase 3 starts to get cleaved” value ([1]; 24 h, MM cells) turn out when `N#CC(C#N)=NNc1cccc(Cl)c1` [CCCP] was run?
Answer: Its value is 5 µM.

Question: What about the “CCCP concentration giving significant induction of CHOP/GADD153 expression” value ([1]; 24 h, MM.1S) of the same molecule?
Answer: The value was 2.5 µM.

Question: And the “potency in upregulating CHOP/GADD153, MM versus B-cell leukemia” value ([1]; FIG. 12c)?
Answer: Its value is “four times more potent”.

Question: And the “AMPK phosphorylation at higher doses” value ([1]; MM.1S)?
Answer: The value was “suppressed”.

Question: What about the “eif2α phosphorylation and ATF4 upregulation” value ([1]; MM.1S treated with CCCP) of the same molecule?
Answer: Its value is “not detected”.

Question: And the “CCCP concentration required for similar increase of CHOP/GADD153” value ([2]; 24 h, REH)?
Answer: The value was “at least 10 μM”.

Question: What about the “AMPK phosphorylation at higher doses” value ([2]; REH) of the same molecule?
Answer: The value was “continues to increase”.

Question: What about the “cleaved caspase 3” value ([2]; REH, even at the 10 μM dose) of the same molecule?
Answer: Its value is “no cleaved caspase 3 can be detected”.

Question: What about the AMPK phosphorylation ([2]; highest dose (10 μM) CCCP, REH compared to MM.1S) of the same molecule?
Answer: The AMPK phosphorylation was “more phosphorylated”.

Question: And the “cytotoxic potency compared to the other mitochondrial inhibitors” value ([3]; 24 h, MM cells)?
Answer: Its value is “equipotency in inducing cytotoxicity in MM cells”.

Question: What about the “order of sensitivity among MM cell lines” value ([3]; 24 h treatment) of the same molecule?
Answer: Its value is “greater in 8226 as compared to MM.1S cells”.

Question: What about the “cytotoxicity (cell death)” value ([3]; 24 h treatment, all 4 MM cell lines) of the same molecule?
Answer: Its value is “more toxic to multiple myeloma cell lines as compared to other cell types”.

Question: What about the “cytotoxicity at higher concentrations” value [4] of the same molecule?
Answer: The value was “significant toxicity is induced in all cell types”.

Question: And the “cytotoxicity (cell death)” value ([5]; 24 h, all 3 MM cell lines)?
Answer: Its value is “more toxic to MM cells as compared to non-myeloma cells”.

Question: And the “cell death compared among mitochondrial inhibitors” value ([5]; concentrations of FIG. 13, caspase 3 cleavage and percent of cell death)?
Answer: Its value is “more toxic than either antimycin A or oligomycin”.

Question: And the ATP levels [6]?
Answer: The ATP levels was “decreased more significantly in REH cells, as compared to MM.1S cells”.
